In publication PMC5915149, “The role of oxidative stress in activity of anticancer thiosemicarbazones” (Oncotarget, 2018):
Entries after “also recorded” stand apart in the source; their conditions may differ. Read-outs that look alike come from different tables or passages of the source.

What was measured:
HCT116 [1] = assay: MTS antiproliferative assay, HCT116 (with or without added metal ions); type: cell-based, human; conditions: for Selectivity index, calculated for HCT116: versus NHDF
Description: (§1) The cells were seeded in 96-well plates (Nunc) at a density of 3,500 cells/well (HCT116 and MCF-7) and 3,000 cells/well (NHDF) and incubated at 37° C for 24 h. The assay was performed following a 96 h incubation with varying concentrations of the compounds that were being tested. Then, 20 µL of CellTiter 96® AQueous One Solution-MTS (Promega) was added to each well (with 100 µL DMEM without phenol red) and incubated for 1 h at 37° C. The optical densities of the samples were analyzed at 490 nm using a multi-plate reader (Synergy 4, Bio Tek). Results were expressed as a percentage of the control and calculated as the inhibitory concentration (IC50) values (using GraphPad Prism 5). The IC50 parameter was defined as the compound concentration that was necessary to reduce the proliferation of cells to 50% of the untreated control. Each individual compound was tested in triplicate in a single experiment with each experiment being repeated three or four times.
(§2) The HCT116 and MCF-7 cells were seeded in 96-well plates (Nunc) at a density of 3,500 cells/well and incubated at 37° C for 24 h. The MTS assay was performed following a 96 h incubation with varying concentrations of the tested compounds. Additionally, a 20 µM solution of CuSO4, FeSO4 or FeCl3 was added into wells with the tested compounds. The results were expressed as a percentage of the control and calculated as the inhibitory concentration (IC50) values using GraphPad Prism 5. Each individual compound was tested in triplicate in a single experiment with each experiment being repeated three times.

MCF-7 = assay: MTS antiproliferative assay, MCF-7 (with or without added metal ions); type: cell-based, human; conditions: for Selectivity index, calculated for MCF-7: versus NHDF; for improvement in cytotoxicity after interacting with Cu^2+: MCF-7 cells, 20 µM CuSO4
Description: as §1, §2

p21 = assay: Western blot of p21; type: cell-based, human; conditions: HCT116, 1 µM
Description: (§3) The HCT116 cells were seeded in 3 cm Petri dishes (Nunc) at a density of 0.5·10^6 cells/well and incubated overnight. The next day, solutions of TSC (1 μM) and DOX (5 μM) were added and the cells incubated for 24 or 48 h. Cells were harvested by trypsinization and washed with cold PBS. Next, the cells were centrifuged and suspended in an RIPA buffer (Thermo Scientific) containing Halt Protease Inhibitor Cocktail (Thermo Scientific), Halt Phosphatase Inhibitor Cocktail (Thermo Scientific) along with 0.5 M EDTA and lysed for 20 min on ice. Then, the lysates were sonicated, centrifuged at 10,000 rpm for 10 min at 4° C and the supernatants were collected for further analysis. The protein concentration was determined using a Micro BCA™ Protein Assay Kit (Thermo Scientific) according to the manufacturer’s instructions. Equal amounts of the proteins (20 μg) were electrophoresed on SDS-Page gels and transferred onto a nitrocellulose membranes. The membranes were blocked in 5% non-fat milk prepared in PBS containing 0.1% Tween-20 (TPBS) for 1 h. After blocking, the membranes were incubated with specific primary antibodies: cdc2 (#POH1, Cell Signaling), p21^Waf1/Cip1 (#12D1, Cell Signaling), p53 (#1C12, Cell Signaling) and β-Actin (#8H10D10, Cell Signaling) overnight at 4° C, then washed and incubated with horseradish peroxidase (HRP)-conjugated secondary antibodies for 1h at room temperature. All of antibodies were diluted 1:1000 in 5% milk in TPBS. Finally, the membranes were washed and incubated with a SuperSignal™ West Pico Chemiluminescent Substrate (Thermo Scientific). The chemiluminescence signals were captured using a ChemiDoc™ XRS+ System (BioRad). The experiments were performed at least three times. Densitometric analysis was performed using ImageJ 1.41 software (Wayne Rasband, National Institutes of Health, USA).

cdc2 = assay: Western blot of cdc2; type: cell-based, human; conditions: HCT116, 1 µM
Description: as §3

HCT116 cells = assay: Cell cycle assay (Muse Cell-Cycle Kit); type: cell-based, human; conditions: HCT116, TSC 1 µM, 48 h
Description: The HCT116 cells were seeded in 3 cm Petri dishes (Nunc) at a density of 0.25·10^6 cells/well and incubated at 37° C for 24 h. […] After a 48 h treatment, assays were performed using a Muse Cell-Cycle Kit (Millipore) according to the manufacturer’s instructions. Briefly, cells were collected, washed with cold PBS and centrifuged at 300 g. Then, the cells were fixed in ice cold 70% ethanol and stored at –20° C overnight. Afterwards, the cells were centrifuged and resuspended in 200 μL of Muse™ Cell Cycle Reagent and incubated for 30 min at room temperature in the dark. After staining, the cells were processed for cell cycle analysis using a Muse Cell Analyzer (Millipore). The experiments were performed at least three times.

calf-thymus DNA (CT-DNA) = assay: Intercalation, absorption spectra with CT-DNA; type: binding; conditions: for % hypochromism / Changes in absorbance / Δε: bound to CT-DNA; for blue/red shift: wavelengths of maximum absorption, compound alone vs DNA-bound
Description: For the DNA binding studies, Calf-thymus DNA (CT-DNA) was purchased from Sigma Aldrich. The lyophilized CT-DNA was dissolved in 10 mM Tris-HCl, pH 7.9, mixed gently and left overnight at 4° C. The purity of the CT-DNA solution was determined by measuring the ratio of UV absorbance at 260 and 280 nm. […] Then, the concentration of CT-DNA was determined from the absorbance at 260 nm using an extinction coefficient of 6600 M^–1cm^–1. The tested TSC and DOX were dissolved in DMSO to a concentration of 8.35 mM, which was then used as the stock solution for preparing the various concentrations (25, 12.5, 6 and 3 µM) in 1 mL in 10 mM of Tris-HCl (pH 7.9). Afterwards, 18 µM CT-DNA was added to the prepared solutions, which were incubated for 1.5 h at 37° C with occasional vortexing. The absorption spectra were measured using a Hitachi U-2900 spectrophotometer in range of 200–500 nm. All absorption spectra were imported and compared in OriginPro 8.0.

HCT116 [2] = test system: HCT116; parameters: method as in PMID 25329549; conditions: 96 h incubation, MTS; cited from earlier work
NHDF [3] = test system: NHDF; parameters: method as in PMID 25329549; conditions: 96 h incubation, MTS; cited from earlier work
CAT = assay: mRNA expression (Real-Time PCR) of CAT; type: cell-based, human; conditions: HCT116, TSC 1 µM, after the first 12 h
Description: (§4) The HCT116 cells were seeded in 3 cm Petri dishes (Nunc) at a density of 0.5·10^6 cells/well and incubated overnight. Next, the medium was removed and solutions of TSC (1 μM) and DOX (5 μM) were added. After 12 or 24 h, total RNA was isolated from the cells using TRIzol Reagent (Ambion) according to the manufacturer’s instructions. cDNA synthesis was performed with 5 μg of total RNA using a GoScript™ Reverse Transcriptase kit (Promega) and Oligo(dT)23 Primers (Sigma). The Real-Time PCR was performed with a CTX96 Touch™ Real-Time PCR Detection System (Biorad) in a 20 μL reaction volume. The reaction consisted of PowerUp™ SYBR® Green Master Mix (Applied Biosystems), a primer pair mix (0.5 μM each) and 1 μL of cDNA. All primer pair sequences were purchased from Sigma-Aldrich and are listed in Supplementary Table 2. The experiment was performed under the following conditions: initial denaturation at 95° C for 120 sec; followed by 40 denaturation cycles at 95° C, 15 sec; annealing (primer-specific temperature for 30 sec) and extension at 72° C for 60 sec. Data was analyzed based on a comparison of the expression of the target genes to a reference gene – β-actin, using the 2^–ΔΔCT method. The experiments were performed at least three times.

Ndrg1 = assay: mRNA expression (Real-Time PCR) of Ndrg1; type: cell-based, human; conditions: HCT116, TSC 1 µM, 24 h
Description: as §4

MnSOD = assay: mRNA expression (Real-Time PCR) of MnSOD; type: cell-based, human; conditions: HCT116, TSC 1 µM, 12 or 24 h
Description: as §4

NHDF [4] = assay: MTS cytotoxicity assay, normal fibroblasts; type: cell-based, human; conditions: Homo sapiens, NHDF, 96 h incubation
Description: as §1

[5] = Homo sapiens, HCT-116, 96 h, 20 µM CuSO4 added, read-out: Activity - IC50 HCT116+ Cu^2+
[6] = Homo sapiens, HCT-116, 96 h, 20 µM FeCl3 added, read-out: Activity - IC50 HCT116+ Fe^3+
[7] = Homo sapiens, MCF7, 96 h, 20 µM CuSO4 added, read-out: Activity - IC50 MCF-7+ Cu^2+
[8] = Homo sapiens, MCF7, 96 h, 20 µM FeCl3 added, read-out: Activity - IC50 MCF-7+ Fe^3+
[9] = Homo sapiens, MCF7, 96 h incubation, MTS, read-out: Activity - IC50 MCF-7
[10] = 96 h, 20 µM CuSO4 added, read-out: Activity - IC50 HCT116+ Cu^2+
[11] = 96 h, 20 µM FeCl3 added, read-out: Activity - IC50 HCT116+ Fe^3+
[12] = 96 h, 20 µM CuSO4 added, read-out: Activity - IC50 MCF-7+ Cu^2+
[13] = 96 h, 20 µM FeCl3 added, read-out: Activity - IC50 MCF-7+ Fe^3+
[14] = 96 h incubation, MTS, read-out: Activity - IC50 MCF-7

| IC50 (HCT116 [1]; [5]) | IC50 (HCT116 [1]; [6]) | IC50 (MCF-7; [7]) | IC50 (MCF-7; [8]) | IC50 (HCT116 [1]; [10]) | IC50 (HCT116 [1]; [11]) | IC50 (MCF-7; [12]) | IC50 (MCF-7; [13]) | IC50 (MCF-7; [14]) | SMILES | Selectivity index, calculated for HCT116 (HCT116 [1]) | expression of p21 protein (densitometric analysis) (p21) | expression of cdc2 protein (densitometric analysis) (cdc2) | cells in S phase (HCT116 cells) | % hypochromism (calf-thymus DNA (CT-DNA)) | Changes in absorbance (calf-thymus DNA (CT-DNA)) | Δε (calf-thymus DNA (CT-DNA)) | blue/red shift (calf-thymus DNA (CT-DNA)) | IC50 (HCT116 [2]) | IC50 (NHDF [3]) | mRNA expression of MnSOD (MnSOD) | other results |
| --- | --- | --- | --- | --- | --- | --- | --- | --- | --- | --- | --- | --- | --- | --- | --- | --- | --- | --- | --- | --- | --- |
| 0.31 ± 0.06 nM | 1.77 ± 0.36 nM | 0.13 ± 0.04 nM | 0.96 ± 0.32 nM | – | – | – | – | – | CN(C)C(=S)NN=C(c1ccccn1)c1ccccn1 [Dp44mT, di-2-pyridylketone 4,4-dimethyl-3-thiosemicarbazone, reference compound] | 10985.7 | marked up-regulation | lowest values | 41% | 8.2% | hypochromism | 1673.3 M⁻¹ cm⁻¹ | 2 nm | 1.4 ± 0.13 nM | 15400 nM | – | IC50 (MCF-7; [9]): 0.38 ± 0.15 nM; Selectivity index, calculated for MCF-7 (MCF-7): 40473.7; ability to intercalate DNA (calf-thymus DNA (CT-DNA); CT-DNA, absorption spectra): very weak |
| – | – | – | – | 4.17 ± 1.12 nM | 78.2 ± 14 nM | 5.49 ± 1.19 nM | 35.8 ± 5.82 nM | 32.2 ± 6.85 nM | Oc1cccc2ccc(C=NNC(=S)N3CCN(c4cnccn4)CC3)nc12 [Compound 2b] | – | – | increased the expression | 33–35% | 9.4% | hypochromism | 1888.9 M⁻¹ cm⁻¹ | 5 nm | 50.5 ± 28.1 nM | 12100 nM | – | improvement in cytotoxicity after interacting with Cu^2+ (HCT116 [1]; HCT116 cells, 20 µM CuSO4): more than a ten-fold increase; mRNA expression of CAT (CAT): higher; mRNA expression of Ndrg1 (Ndrg1): strongest |
| – | – | – | – | 59.6 ± 6.45 nM | 96.9 ± 16.9 nM | 44.9 ± 3.77 nM | 273 ± 35.6 nM | 219 ± 15.1 nM | S=C(NN=Cc1ccc2ccccc2n1)N1CCN(c2cnccn2)CC1 [Compound 1a] | – | – | – | – | 22.0% | hypochromism | 3175.6 M⁻¹ cm⁻¹ | 1 nm | 87.7 ± 43.9 nM | 9440 nM | after the initial decline (for 12 h) there is a small increase | – |
| 19.7 ± 0.53 nM | 72.4 ± 12.9 nM | 3.78 ± 0.88 nM | 25 ± 2.16 nM | – | – | – | – | – | Fc1ccc(N2CCN(C(=S)NN=Cc3ccc4ccccc4n3)CC2)cc1 [Compound 1b, 4-(4-fluorophenyl)-N’-[(quinolin-2-yl)methylidene]piperazine-1-carbothiohydrazide] | 1.8 | increased p21 level, but in a lesser degree | lowest values; also recorded: strongest decreasing effect | – | 24.2% | hypochromism | 2313.3 M⁻¹ cm⁻¹ | 10 nm | – | – | large drop | IC50 (HCT116 [1]; Homo sapiens, HCT-116, 96 h incubation, MTS, read-out: Activity - IC50 HCT116): 62.2 ± 8.95 nM; IC50 (MCF-7; [9]): 31.4 ± 3.38 nM; improvement in cytotoxicity after interacting with Cu^2+ (MCF-7): eight-fold; Selectivity index, calculated for MCF-7 (MCF-7): 3.6; IC50 (NHDF [4]): 114 ± 10.3 nM |
| – | – | – | – | 1.39 ± 0.44 nM | 7.57 ± 1.19 nM | 2.39 ± 0.42 nM | 8.83 ± 1.29 nM | 10.9 ± 2.85 nM | Oc1cccc2ccc(C=NNC(=S)N3CCOCC3)nc12 [Compound 2a] | – | – | – | 33–35% | 15.7% | hypochromism | 1935.6 M⁻¹ cm⁻¹ | 10 nm | 3.84 ± 1.46 nM | 10600 nM | slight increase | – |
| – | – | – | – | 1.56 ± 0.44 nM | 9.94 ± 2.69 nM | 0.54 ± 0.15 nM | 5.35 ± 0.66 nM | 4.1 ± 0.93 nM | S=C(NN=C(c1ccccn1)c1ccccn1)N1CCN(c2ccccn2)CC1 [Compound 3b] | – | increased p21 level, but in a lesser degree | strongest decreasing effect | – | 31.9% | hypochromism | 6133.3 M⁻¹ cm⁻¹ | 5 nm | 2.06 ± 0.88 nM | 160 ± 40 nM | large drop | improvement in cytotoxicity after interacting with Cu^2+ (MCF-7): eight-fold; mRNA expression of CAT (CAT): higher; mRNA expression of Ndrg1 (Ndrg1): strongest; cells in G0/G1 phase (HCT116 cells; untreated 72%): 39% |
